Reference: patent US20110166163A1, “SUBSTITUTED FUROPYRIMIDINES AND USE THEREOF” (BAYER SCHERING PHARMA AKTIENGESELLSCHAFT, priority 2007, published 2011)
pIC50: −log10 of the molar value.

Target: T1, prostacyclin receptors (IP receptors) (Homo sapiens, UniProt P43119)
T1 construct: Thrombocyte membranes are obtained by centrifuging 50 ml of human blood; tissue Maco Pharma, Langen (buffy coats); host or cells: human thrombocyte (platelet) membranes from blood buffy coats
Experiment: Binding to prostacyclin receptors (IP receptors) of human thrombocyte membranes
Details: displacement of 3 nM 3H-Iloprost, 60 min, room temperature
Experimental: Thrombocyte membranes are obtained by centrifuging 50 ml of human blood (Buffy coats with CDP Stabilizer, from Maco Pharma, Langen) for 20 min at 160×g. Remove the supernatant (platelet-rich plasma, PRP) and then centrifuge again at 2000×g for 10 min at room temperature. Resuspend the sediment in 50 mM tris(hydroxymethyl)amino-methane, which has been adjusted to a pH of 7.4 with 1 N hydrochloric acid, and store at −20° C. overnight. On the next day, centrifuge the suspension at 80 000×g and 4° C. for 30 min. Discard the supernatant. Resuspend the sediment in 50 mM tris(hydroxy-methyl)aminomethane/hydrochloric acid, 0.25 mM ethylene diamine tetraacetic acid (EDTA), pH 7.4, and then centrifuge once again at 80 000×g and 4° C. for 30 min. Take up the membrane sediment in binding buffer (50 mM tris(hydroxymethyl)-aminomethane/hydrochloric acid, 5 mM magnesium chloride, pH 7.4) and store at −70° C. until the binding test.
For the binding test, incubate 3 nM ^3H-Iloprost (592 GBq/mmol, from AmershamBioscience) for 60 min with 300-1000 μg/ml of human thrombocyte membranes per charge (max. 0.2 ml) in the presence of the test substances at room temperature. After stopping, add cold binding buffer to the membranes and wash with 0.1% bovine serum albumin. After adding Ultima Gold Scintillator, quantify the radioactivity bound to the membranes using a scintillation counter. The nonspecific binding is defined as radioactivity in the presence of 1 μM Iloprost (from Cayman Chemical, Ann Arbor) and is as a rule <25% of the bound total radioactivity. The binding data (IC50 values) are determined using the program GraphPad Prism Version 3.02.

T1 sequence (P43119 whole entry): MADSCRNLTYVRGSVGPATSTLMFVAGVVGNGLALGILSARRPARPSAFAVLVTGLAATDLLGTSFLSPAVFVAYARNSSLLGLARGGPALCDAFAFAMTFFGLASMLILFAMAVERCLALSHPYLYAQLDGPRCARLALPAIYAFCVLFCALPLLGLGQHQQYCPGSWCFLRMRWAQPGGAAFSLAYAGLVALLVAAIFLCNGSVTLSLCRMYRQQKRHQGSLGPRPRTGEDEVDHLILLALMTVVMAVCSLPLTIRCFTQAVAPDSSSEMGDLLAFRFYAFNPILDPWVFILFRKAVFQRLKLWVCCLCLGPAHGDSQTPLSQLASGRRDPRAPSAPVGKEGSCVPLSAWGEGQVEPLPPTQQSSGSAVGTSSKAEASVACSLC

| Compound | pIC50 |
| --- | --- |
| COc1ccc(-c2c(-c3cccs3)oc3ncnc(NCCCCCC(=O)O)c23)cc1 [Example 32, 6-{[5-(4-Methoxyphenyl)-6-(2-thienyl)furo[2,3-d]pyrimidin-4-yl]amino}hexanoic acid] | 6.87 |
| COc1ccc(-c2c(-c3ccccn3)oc3ncnc(O[C@H](C)CCCCC(=O)O)c23)cc1 [Example 21] | 7.28 |
| CC1CC=C(c2c(-c3ccccc3)oc3ncnc(O[C@H](C)CCCCC(=O)O)c23)CC1 (stereo partly drawn) [Example 26, (6R)-6-{[5-(4-Methylcyclohex-1-en-1-yl)-6-phenylfuro[2,3-d]pyrimidin-4-yl]oxy}heptanoic acid] | 5.73 |
| COc1ccc(-c2c(-c3ncccc3F)oc3ncnc(O[C@H](C)CCCCC(=O)O)c23)cc1 [Example 48] | 6.92 |
| COc1ccc(-c2c(C3=CCCCC3)oc3ncnc(O[C@H](C)CCCCC(=O)O)c23)cc1 [Example 24] | 7.14 |

Next, values leading:

| pIC50 | Compound |
| --- | --- |
| 6.71 | CCc1ccc(-c2c(-c3ccccn3)oc3ncnc(OC[C@H](C)OCCC(=O)O)c23)cc1 [Example 51] |
| 7.20 | CCc1ccc(-c2c(-c3ccccc3)oc3ncnc(OC[C@H](C)COCC(=O)O)c23)nc1 [Example 46] |
| 7.72 | CCc1ccc(-c2c(-c3ccccn3)oc3ncnc(O[C@H](C)CCCCC(=O)O)c23)cc1 [Example 49] |
| 6.90 | CCc1ccc(-c2c(-c3ccccc3)oc3ncnc(NCCCCCC(=O)O)c23)nc1 [Example 18] |
| 6.98 | C=Cc1ccc(-c2c(-c3ccccc3)oc3ncnc(NCCCCCC(=O)OC)c23)nc1 [Example 3, Methyl 6-{[6-phenyl-5-(5-vinylpyridin-2-yl)furo[2,3-d]pyrimidin-4-yl]amino}hexanoate] |
| 7.25 | CCOC(=O)COC[C@@H](C)COc1ncnc2oc(-c3ccccn3)c(-c3ccc(OC)cc3)c12 [Example 37] |
